Assay results reported in US10111889B2, “Uses of ganaxolone” (priority 2014, dated 2018).

Legend:
[1] = clinical trials; even at very high doses; cited from earlier work
WAG/Rij mice = settings: administered directly into somatosensory cortex; cited from earlier work
RQ mice = assay: Evaluation of sleep patterns (video and EEG) in RQ mice; type: in vivo, mouse; settings: 2 mg/kg i.p. on two consecutive days
Text: RR and RQ mice (n=3 each) were monitored with video and EEG recordings. […] Sleep stages (Wake, NREM and REM) were scored visually from the EEG by an experienced scorer. For statistical analysis, EEG delta power (0.5-4 Hz) was normalized by dividing by the sum of power in the non-delta bands (6-100 Hz).

GABAA receptor = assay: Whole-cell patch clamp, tonic/holding current in somatosensory cortical layer II/III pyramidal cells of brain slices; type: cell-based, mouse; settings: 30 μM
Procedure: Horizontal slices (400 μm) were prepared from the brains of C57BL/6J mice RR and RQ mice of either sex (16-26 days old). […] Mice were anesthetized with isoflurane, decapitated, and the brain was removed and placed in ice-cold cutting solution containing (in mM): 125 NaCl, 25 NaHCO3, 2.5 KCl, 1.25 NaH2PO4, 0.5 CaCl2, 3.35 MgCl2, 25 D-Glucose, 13.87 M sucrose, and bubbled with 95% O2 and 5% CO2. Slices were cut using a vibratome (Leica VT 1000S, Global Medical Imaging; Ramsey, Minn.) and placed in an incubation chamber containing standard 2 mM CaCl2, 1 mM MgCl2 artificial cerebrospinal fluid (ACSF) at room temperature for 1 hour before being used for recordings. Whole cell patch-clamp recordings were made from somatosensory cortical layer II/III pyramidal cells or ventrobasal thalamic relay cells, visualized using an upright differential interference contrast microscope (Axioskop FS2, Zeiss; Oberkochen, Germany). […]
Additional segments (30 s) just prior to and 90 s after bicuculline administration were analyzed to quantify inhibitory tonic currents. […] Tonic current was calculated as the difference between the fitted Gaussian means before and after bicuculline administration. Current density (pA/pF) was calculated by dividing the current by cell capacitance.

wild-type (RR) mice = assay: EEG monitoring of SWDs in wild-type (RR) mice after blocking cortical tonic inhibition; type: in vivo, mouse
Text: The present study used wild-type Harlan C57BL/6J-OlaHsd and γ2R43Q knock-in mice bred into a background of C57BL/6J-OlaHsd mice. Behavioral and electrographic markers of absence epilepsy in these animals were confirmed by video-EEG monitoring. In-depth detailing of surgery and electrode implantation are described in the prior art. Briefly, P24 mice were implanted, under isoflurane anesthesia (1%-2% in 100% O2), for chronic EEG recordings with gold plated miniature screw electrodes over the right and left frontal and parietal cortices, and one over the cerebellum as reference. Two vinyl-coated braided stainless steel wire electrodes were placed in the nuchal muscle for electromyogram (EMG) recording of muscle activity. All electrodes were gathered into a flexible cable and connected to the Multichannel Neurophysiology Recording system (Tucker-Davis Technologies, TDT, Alachua, Fla., USA). […] Continuous EEG recordings with occasional video monitoring were made and SWDs were scored off-line. […] Only SWD events that occurred >2 min from slow-wave-sleep periods were used for quantification. SWD event durations were measured from the first synchronized positive peak signal to the last synchronized positive peak within an event. […]
When comparing normally distributed data, two groups were assessed with a t-test and comparisons of three or more were assessed with ANOVA. […]

wild-type mice = settings: thalamus of wild-type mice; cited from earlier work

## CC(=O)[C@H]1CC[C@H]2[C@@H]3CC[C@H]4C[C@](C)(O)CC[C@]4(C)[C@H]3CC[C@]12C [GANX, 3α-hydroxy-3β-methyl-5α-pregnan-20-one]
[1]
  side effects: relatively modest side effects
WAG/Rij mice
  number of SWDs observed: decreases the number of SWDs
RQ mice; RQ mice
  briefer Wake durations of RQ mice: not reversed
  shorter brief awakenings (<=16 seconds) of RQ mice: not altered
  shorter durations of single NREM episodes of RQ mice: reversed by GANX to normal levels
RQ mice; RQ mice, normal sleep time (daylight)
  higher normalized delta power of RQ mice: reversed by GANX toward normal levels
RQ mice; RR, RQ, RQ with GANX
  durations of REM: No groups differed
  number of brief awakenings: did not differ between any groups

## CCOC(=O)c1ncn2c1C1CCCN1C(=O)c1cc(OC)ccc1-2 (stereo not shown) [L655,708, 11,12,13,13a-Tetrahydro-7-methoxy-9-oxo-9H-imidazo[1,5-a]pyrrolo[2,1-c][1,4]benzodiazepine-1-carboxylic acid, ethyl ester]
GABAA receptor
  tonic current in RR somatosensory cortical layer II/III cells: completely blocked
wild-type (RR) mice; 2 mg/kg i.p.
  SWD generation in RR mice: produced SWDs
wild-type (RR) mice; injected twice a day for 2 consecutive days, wild-type mice
  persistence of SWDs after the last injection: still displayed SWDs 3 days after the last injection

## Oc1noc2c1CCNC2 [THIP, 4,5,6,7-tetrahydroisoxazolo[5,4-c]pyridin-3-ol]
wild-type mice
  SWDs associated with absence epilepsy: produces the SWDs

## CC(=O)[C@H]1CC[C@H]2[C@@H]3CC[C@H]4C[C@H](O)CC[C@]4(C)[C@H]3CC[C@]12C [allopregnanolone]
WAG/Rij mice
  number of SWDs observed: decreases the number of SWDs
